Test results: PMC3397457, “Preclinical Evaluation of Anticancer Efficacy and Pharmacological Properties of FBA-TPQ, a Novel Synthetic Makaluvamine Analog” (Marine Drugs, 2012)

What was measured:
HPAC cells = assay: MTT cell survival assay, HPAC; type: cell-based; conditions: Homo sapiens, 72 h, read-out: Cytotoxicity IC50
Protocol: (§1) We evaluated the effects of FBA-TPQ on the survival of several human pancreatic cancer cell lines, including HPAC (p53^+/+), Panc-1(p53^+/−), and Mia PaCa-2(p53^+/−), as well as normal IRM90 fetal fibroblast cells (Figure 2a). Cells were exposed to various concentrations of the test compound (0–10 µM) for 72 h, and cell survival rates were determined by the MTT assay, using a procedure reported previously. FBA-TPQ exerted potent effects against the test cancer cell lines, leading to significant decreases in cell viability.
(§2) Human pancreatic cancer cells were obtained from the American Type Culture Collection (Rockville, MD). All cell culture media contained 10% FBS and 1% penicillin/streptomycin. […]
(§3) The effect of the test compound on human pancreatic cancer cell viability, expressed as the percentage of cell survival, was determined using the MTT (3-(4,5-dimethylthiazol-2-yl)-2,5-diphenyl tetrazolium bromide) assay. […] The absorbance at 570 nm was recorded using an OPTImax microplate reader (Molecular Devices; Sunnyvale, CA, USA). The cell survival percentages were calculated by dividing the mean OD of compound-containing wells by that of DMSO-containing control wells. […]

Panc-1 cells = assay: Cell cycle distribution by flow cytometry, Panc-1; type: cell-based, human; conditions: Panc-1, 1 µM
Protocol: The effects of FBA-TPQ on cell cycle distribution were analyzed using the previously reported methods; its effects appeared to be cell-line-dependent (Figure 2c). […] The differences in the responses of the different cell lines may be related to their expression of p53.
To determine the effect of FBA-TPQ on the cell cycle, cells (2–3 × 10^5) were exposed to the test compounds (0, 0.1, 0.5 or 1 µM) and incubated for 24 h prior to analysis. Cells were trypsinized, washed with PBS, and fixed in 1.5 mL of 95% ethanol and 0.5 mL of 0.9% saline solution at 4 °C overnight, followed by incubation with RNAse and staining with propidium iodide (Sigma). The DNA content was determined by flow cytometry. The cell cycle distribution was evaluated by comparing with that of the control cells.

Mia PaCa-2 cells = assay: Annexin V apoptosis assay/flow cytometry, Mia PaCa-2; type: cell-based, human; conditions: Mia PaCa-2, 1 µM, 48 h
Protocol: The apoptotic cells were detected using a method reported previously. […] In HPAC cells, a 1 µM concentration of FBA-TPQ increased the apoptotic index two-fold higher than that seen in control cells (P < 0.01). […] In the Mia PaCa-2 cells, FBA-TPQ at 1 µM led to a three-fold increase in apoptosis (P < 0.01).
Following a similar protocol as above, cells in early and late stages of apoptosis were detected using an Annexin V-FITC apoptosis detection kit from BioVision (Mountain View, CA, USA), according to the manufacturer’s protocol. For apoptosis experiments, 2–3 × 10^5 cells were exposed to the test compound (0, 0.1, 0.5 and 1.0 µM) and incubated for 48 h prior to analysis. Cells were collected and washed with serum-free media. Cells were then re-suspended in 500 µL of Annexin V binding buffer followed by addition of 5 µL of Annexin V-FITC and 5 µL of propidium iodide (PI). The samples were incubated in the dark for 5 min at room temperature and analyzed with a Becton Dickinson FACSCalibur instrument (Ex = 488 nm; Em = 530 nm). Cells that were positive for Annexin V-FITC alone (early apoptosis) and Annexin V-FITC and PI (late apoptosis) were counted. The apoptotic index was calculated against the untreated control cells.

[1] = test system: murine hepatic S9 fractions containing Phase I and II metabolic enzymes; assay: S9 metabolism; type: in vitro ADME; conditions: mouse hepatic S9, 10 μM, 60 min incubation
Protocol: As a preliminary study of the metabolism of FBA-TPQ, the compound was incubated with S9 fractions containing Phase I and Phase II metabolic enzymes and their co-factors for 15, 30, 45, or 60 min. […] No specific peaks that seemed to correspond to unique metabolites were identified using the current RRLC method.
A preliminary study of the metabolism of FBA-TPQ was done using murine hepatic S9 fractions containing Phase I and II metabolic enzymes. […] Duplicate aliquots of the mixtures were taken at 0, 15, 30, 45, and 60 min, and the samples were processed and analyzed. The percent of FBA-TPQ that was metabolized by Phase I and Phase II enzymes was calculated by comparing the initial concentration of the iminoquinone to the measured concentration following incubation.

[2] = MTT cell survival assay, IMR-90 normal fibroblasts; type: cell-based; conditions: human, IMR-90 normal fetal fibroblast cells, read-out: Cytotoxicity IC50
Protocol: as §1, §2, §3

SMILES: O=C1C(NCc2ccc(F)cc2)=CC2=NCCc3c[nH]c1c32 [FBA-TPQ, 7-(4-fluorobenzylamino)-1,3,4,8-tetrahydropyrrolo[4,3,2-de]quinolin-8(1H)-one]
- IC50 (HPAC cells): 0.54 ± 0.03 µM
- cell cycle arrest (Panc-1 cells): arrest in the S phase
- increase in apoptosis vs control cells (Mia PaCa-2 cells): three-fold
- compound metabolized by Phase I components [1]: approximately 14.3%
- compound metabolized by Phase II components [1]: ~1.8%
- IC50 at 72 h [2]: 5.82 ± 0.46 µM
